Reference: publication PMC9270327 (Communications Biology, 2022)
Structures can show the parent of a compound that is named as a salt. Where two headings read alike, the source gives them in different places.

How the values were obtained:
TMPRSS2 = TMPRSS2 (Homo sapiens, UniProt O15393)
Description: Negative ctrl: no inhibitor, positive ctrl: inhibitor in assay buffer. d Inhibitory constants Ki as determined from (a–c). Shown are the means ± SD of n = 1 experiment performed in triplicates. No inh. no inhibition.
The activity of the compounds against the recombinant human enzymes was determined in enzyme inhibition assays. […] The measurements were performed on a Tecan infinite® M1000 and the fluorescence intensity was measured by exciting the AMC fluorophore at 380 nm wavelength and recording emission at 460 nm wavelength. […] Fluorescence intensities and absorption were measured every 2 min for 2 h or as endpoint after 2 h. […] To determine the IC50 values, the concentration-response data were plotted with the program GraphPad prism version 8.4.2 (San Diego, California) and a nonlinear regression fit with the equation [Inhibitor] vs. normalized response was applied. The inhibitory constant Ki was calculated from the IC50 values using the Cheng–Prusoff equation (Ki = IC50/[S]/KM) for competitive reversible inhibitors[66].
The stability of the inhibitors was measured according to a modified procedure from ref. [67]. […] At indicated timepoints, 100 µL samples were taken and mixed with 200 µL of ethanol to precipitate proteins. […] The supernatant was aspirated and analyzed using analytical HPLC. The residual inhibitory constants Ki after incubation was assessed by mixing serial dilutions of the inhibitor with recombinant TMPRSS2 as described above.

[1] = target: cellular TMPRSS2 activity, Caco-2 cells (Homo sapiens, UniProt O15393); details: normalized, 0 nM = 100
Description: In total, 10,000 Caco-2 cells (ATCC) in 100 µL EMEM medium supplemented with 10% FBS, 100 U/mL penicillin, […] streptomycin, and 2 mM glutamine (all Invitrogen, Germany) were seeded per well in a 96-well plate and incubated at 37 °C for 4 days until full confluency of the cells. The cells were washed two times with PBS and EMEM medium without FBS was added. […] The fluorescence intensity was measured as described above. In all, 20,000 HEK293T cells (ATCC) were seeded in 100 µL DMEM supplemented with 10% FBS, 100 U/mL penicillin, […] streptomycin, and 2 mM glutamine. […] After 14 h, transfection mix was removed from the cells and 80 µL fresh medium without FBS and 10 µL inhibitors were added (final concentration 50 µM). […] Fluorescence intensity was measured after 2 h at 37 °C as described above.

Caco-2 cells = details: Fig. 6e

Sequence of TMPRSS2 (O15393 whole entry): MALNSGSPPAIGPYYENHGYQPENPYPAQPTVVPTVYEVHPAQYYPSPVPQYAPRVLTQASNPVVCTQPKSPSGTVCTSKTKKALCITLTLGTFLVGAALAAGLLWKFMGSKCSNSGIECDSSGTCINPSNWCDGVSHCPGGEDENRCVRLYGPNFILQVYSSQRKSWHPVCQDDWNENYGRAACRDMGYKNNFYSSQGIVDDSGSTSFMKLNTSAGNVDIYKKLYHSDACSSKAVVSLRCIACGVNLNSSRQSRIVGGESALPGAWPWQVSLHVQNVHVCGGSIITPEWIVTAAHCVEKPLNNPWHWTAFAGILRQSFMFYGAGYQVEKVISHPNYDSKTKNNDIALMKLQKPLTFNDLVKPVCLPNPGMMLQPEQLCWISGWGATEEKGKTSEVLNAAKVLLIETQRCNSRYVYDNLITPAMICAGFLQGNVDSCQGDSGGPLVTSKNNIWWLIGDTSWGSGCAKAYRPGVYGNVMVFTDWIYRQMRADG
Sequence of cellular TMPRSS2 activity, Caco-2 cells (O15393 whole entry): as above

Structure (SMILES): CN(C)C(=O)COC(=O)Cc1ccc(OC(=O)c2ccc(NC(=N)N)cc2)cc1 [CM, camostat mesylate, reference compound]
- residual inhibitory activity against TMPRSS2 after incubation in body fluids (TMPRSS2; human serum / plasma, up to 10 days): inactive
- reduction of activity against TMPRSS2 upon addition to serum (TMPRSS2; immediately after addition to human serum): around 60 fold
- TMPRSS2 activity, Mean (0 nM = 100) (TMPRSS2; inhibitor 0.0167 nM, 0 min in serum): 97.0909
- TMPRSS2 activity, Mean (0 nM = 100) (TMPRSS2; inhibitor 0.0167 nM, 30 min in serum): 98.7509
- TMPRSS2 activity, Mean (0 nM = 100) (TMPRSS2; inhibitor 0.0167 nM, 60 min in serum): 96.1122
- TMPRSS2 activity, Mean (0 nM = 100) (TMPRSS2; inhibitor 0.0167 nM, 120 min in serum): 96.1122
- TMPRSS2 activity, Mean (0 nM = 100) (TMPRSS2; inhibitor 0.0167 nM, 24 h in serum): 109.9729
- TMPRSS2 activity, Mean (0 nM = 100) (TMPRSS2; inhibitor 0.0167 nM, 10 d in serum): 104.3134
- TMPRSS2 activity, Mean (0 nM = 100) (TMPRSS2; inhibitor 0.0167 nM, positive ctrl): 91.4692
- TMPRSS2 activity, Mean (0 nM = 100) (TMPRSS2; inhibitor 0.167 nM, 0 min in serum): 95.7227
- TMPRSS2 activity, Mean (0 nM = 100) (TMPRSS2; inhibitor 0.167 nM, 30 min in serum): 96.8742
- TMPRSS2 activity, Mean (0 nM = 100) (TMPRSS2; inhibitor 0.167 nM, 60 min in serum): 95.2722
- TMPRSS2 activity, Mean (0 nM = 100) (TMPRSS2; inhibitor 0.167 nM, 120 min in serum): 95.2722
- TMPRSS2 activity, Mean (0 nM = 100) (TMPRSS2; inhibitor 0.167 nM, 24 h in serum): 109.0078
- TMPRSS2 activity, Mean (0 nM = 100) (TMPRSS2; inhibitor 0.167 nM, 10 d in serum): 107.9350
- TMPRSS2 activity, Mean (0 nM = 100) (TMPRSS2; inhibitor 0.167 nM, positive ctrl): 67.2760
- TMPRSS2 activity, Mean (0 nM = 100) (TMPRSS2; inhibitor 1.665 nM, 0 min in serum): 91.6733
- TMPRSS2 activity, Mean (0 nM = 100) (TMPRSS2; inhibitor 1.665 nM, 30 min in serum): 104.2530
- TMPRSS2 activity, Mean (0 nM = 100) (TMPRSS2; inhibitor 1.665 nM, 60 min in serum): 90.9967
- TMPRSS2 activity, Mean (0 nM = 100) (TMPRSS2; inhibitor 1.665 nM, 120 min in serum): 90.9967
- TMPRSS2 activity, Mean (0 nM = 100) (TMPRSS2; inhibitor 1.665 nM, 24 h in serum): 110.5140
- TMPRSS2 activity, Mean (0 nM = 100) (TMPRSS2; inhibitor 1.665 nM, 10 d in serum): 105.0630
- TMPRSS2 activity, Mean (0 nM = 100) (TMPRSS2; inhibitor 1.665 nM, positive ctrl): 16.5425
- TMPRSS2 activity, Mean (0 nM = 100) (TMPRSS2; inhibitor 16.65 nM, 0 min in serum): 58.3113
- TMPRSS2 activity, Mean (0 nM = 100) (TMPRSS2; inhibitor 16.65 nM, 30 min in serum): 66.2869
- TMPRSS2 activity, Mean (0 nM = 100) (TMPRSS2; inhibitor 16.65 nM, 60 min in serum): 73.7709
- TMPRSS2 activity, Mean (0 nM = 100) (TMPRSS2; inhibitor 16.65 nM, 120 min in serum): 73.7709
- TMPRSS2 activity, Mean (0 nM = 100) (TMPRSS2; inhibitor 16.65 nM, 24 h in serum): 114.2941
- TMPRSS2 activity, Mean (0 nM = 100) (TMPRSS2; inhibitor 16.65 nM, 10 d in serum): 105.5411
- TMPRSS2 activity, Mean (0 nM = 100) (TMPRSS2; inhibitor 16.65 nM, positive ctrl): 3.2273
- TMPRSS2 activity, Mean (0 nM = 100) (TMPRSS2; inhibitor 166.5 nM, 0 min in serum): 7.4453
- TMPRSS2 activity, Mean (0 nM = 100) (TMPRSS2; inhibitor 166.5 nM, 30 min in serum): 7.7321
- TMPRSS2 activity, Mean (0 nM = 100) (TMPRSS2; inhibitor 166.5 nM, 60 min in serum): 7.7056
- TMPRSS2 activity, Mean (0 nM = 100) (TMPRSS2; inhibitor 166.5 nM, 120 min in serum): 7.7056
- TMPRSS2 activity, Mean (0 nM = 100) (TMPRSS2; inhibitor 166.5 nM, 24 h in serum): 43.5256
- TMPRSS2 activity, Mean (0 nM = 100) (TMPRSS2; inhibitor 166.5 nM, 10 d in serum): 104.8964
- TMPRSS2 activity, Mean (0 nM = 100) (TMPRSS2; inhibitor 166.5 nM, positive ctrl): 1.7660
- TMPRSS2 activity, Mean (0 nM = 100) (TMPRSS2; inhibitor 1665 nM, 0 min in serum): 2.9461
- TMPRSS2 activity, Mean (0 nM = 100) (TMPRSS2; inhibitor 1665 nM, 30 min in serum): 4.0032
- TMPRSS2 activity, Mean (0 nM = 100) (TMPRSS2; inhibitor 1665 nM, 60 min in serum): 3.9955
- TMPRSS2 activity, Mean (0 nM = 100) (TMPRSS2; inhibitor 1665 nM, 120 min in serum): 3.9955
- TMPRSS2 activity, Mean (0 nM = 100) (TMPRSS2; inhibitor 1665 nM, 24 h in serum): 8.1597
- TMPRSS2 activity, Mean (0 nM = 100) (TMPRSS2; inhibitor 1665 nM, 10 d in serum): 96.3530
- TMPRSS2 activity, Mean (0 nM = 100) (TMPRSS2; inhibitor 1665 nM, positive ctrl): 2.6461
- cellular protease activity on Caco-2 cells, Mean (Fig. 4a) ([1]; 0.1 nM): 103.704
- cellular protease activity on Caco-2 cells, Mean (Fig. 4a) ([1]; 1 nM): 98.7654
- cellular protease activity on Caco-2 cells, Mean (Fig. 4a) ([1]; 10 nM): 63.4921
- cellular protease activity on Caco-2 cells, Mean (Fig. 4a) ([1]; 100 nM): 38.9771
- cellular protease activity on Caco-2 cells, Mean (Fig. 4a) ([1]; 1000 nM): 21.8695
- cellular protease activity on Caco-2 cells, Mean (Fig. 4a) ([1]; 10000 nM): 6.173
- cellular protease activity on Caco-2 cells, Mean (Fig. 4a) ([1]; 100000 nM): 1.764
- Cell viability, Mean (0 nM = 100) (Caco-2 cells; compound 0.26 nM): 104.56
- Cell viability, Mean (0 nM = 100) (Caco-2 cells; compound 1.28 nM): 104.124
- Cell viability, Mean (0 nM = 100) (Caco-2 cells; compound 6.4 nM): 104.38
- Cell viability, Mean (0 nM = 100) (Caco-2 cells; compound 32 nM): 101.009
- Cell viability, Mean (0 nM = 100) (Caco-2 cells; compound 160 nM): 106.562
- Cell viability, Mean (0 nM = 100) (Caco-2 cells; compound 800 nM): 101.849
- Cell viability, Mean (0 nM = 100) (Caco-2 cells; compound 4000 nM): 104.127
- Cell viability, Mean (0 nM = 100) (Caco-2 cells; compound 20000 nM): 103.706
- Cell viability, Mean (0 nM = 100) (Caco-2 cells; compound 100000 nM): 93.2448
